# Results reported in the supplement of paper PMC10307832.
# How the values were obtained:
# Experiment in all cases: relative viability (nuclei count vs DMSO), 5 days (fraction); higher = more cells survive
# [1] = compound: CC1=C(C(=O)N2C=CSC2=N1)CCN3CCC(=C(C4=CC=CC=C4)C5=CC=C(C=C5)F)CC3 + Nc1ncn([C@H]2C[C@H](O)[C@@H](CO)O2)c(=O)n1 [Decitabine] (partner 2 µM)
# Outline: (§1)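 Each reported value is a median over duplicate plates. It expresses relative viability: treated-well nuclei count divided by vehicle-well nuclei count. Lung cancer cell lines in 1536-well plates were dosed by pin tool a day after seeding, alone with one drug or with a fixed anchor-drug dose plus five library-drug doses (not always all listed) in √10 steps, and nuclei were counted after 5 days.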
# [2] = compound: CC1=C(C(=O)N2C=CSC2=N1)CCN3CCC(=C(C4=CC=CC=C4)C5=CC=C(C=C5)F)CC3 + CS(=O)(=O)CCNCc1ccc(-c2ccc3ncnc(Nc4ccc(OCc5cccc(F)c5)c(Cl)c4)c3c2)o1 [Lapatinib] (partner 2 µM)
# Outline: as §1
# [3] = compound: CC1=C(C(=O)N2C=CSC2=N1)CCN3CCC(=C(C4=CC=CC=C4)C5=CC=C(C=C5)F)CC3 + CC(C)C[C@H](NC(=O)[C@H](Cc1ccccc1)NC(=O)c1cnccn1)B(O)O [Bortezomib] (partner 0.002 µM)
# Outline: as §1
# [4] = compound: CC1=C(C(=O)N2C=CSC2=N1)CCN3CCC(=C(C4=CC=CC=C4)C5=CC=C(C=C5)F)CC3 + NC(=O)Nc1cc(-c2cccc(F)c2)sc1C(=O)N[C@H]1CCCNC1 [AZD7762] (partner 0.2 µM)
# Outline: as §1
Cell Line,relative viability ([1]; first compound 0.08 µM),relative viability ([1]; first compound 0.253 µM),relative viability ([1]; first compound 0.8 µM),relative viability ([1]; first compound 2.53 µM),relative viability ([1]; first compound 8 µM),relative viability ([2]; first compound 0.08 µM),relative viability ([2]; first compound 0.253 µM),relative viability ([2]; first compound 0.8 µM),relative viability ([2]; first compound 2.53 µM),relative viability ([2]; first compound 8 µM),relative viability ([3]; first compound 0.08 µM),relative viability ([3]; first compound 0.253 µM),relative viability ([3]; first compound 0.8 µM),relative viability ([3]; first compound 2.53 µM),relative viability ([3]; first compound 8 µM),relative viability ([4]; first compound 0.08 µM),relative viability ([4]; first compound 0.253 µM),relative viability ([4]; first compound 0.8 µM),relative viability ([4]; first compound 2.53 µM),relative viability ([4]; first compound 8 µM)
A549,0.206,0.249,0.266,0.282,0.194,1.06,0.884,0.922,1.23,0.797,–,–,–,–,–,–,–,–,–,–
COR-L23,0.415,0.498,0.405,0.484,0.368,1.13,1.1,1.12,0.921,0.638,0.701,0.74,1.02,1.18,0.397,–,–,–,–,–
COR-L 105,0.59,0.629,0.71,0.719,0.509,0.33,0.443,0.336,0.379,0.401,0.83,0.691,0.75,0.919,0.568,–,–,–,–,–
IA-LM,–,–,–,–,–,–,0.585,0.789,0.853,0.405,0.621,0.757,0.711,0.843,0.63,–,–,–,–,–
LK-2,0.316,0.226,0.341,0.339,0.248,0.764,0.772,1.01,0.903,0.633,–,–,–,–,–,0.496,0.304,0.56,0.349,0.289
NCI-H358,0.211,0.235,0.244,0.256,0.202,0.442,0.535,0.427,0.44,0.404,–,–,–,–,–,0.555,0.487,–,0.462,0.477
NCI-H520,0.471,0.565,0.519,0.515,0.445,0.78,0.693,0.942,1.1,0.684,0.615,0.485,0.57,0.999,0.523,–,–,–,–,–
NCI-H522,0.729,0.629,0.793,0.592,0.686,–,–,–,–,–,–,–,–,–,–,0.927,0.874,0.789,0.721,0.747
NCI-H661,0.528,0.623,0.55,0.528,0.387,0.428,0.469,0.538,0.39,0.355,0.764,0.776,0.88,0.871,0.697,–,–,–,–,–
NCI-H1299,–,–,–,–,–,1.04,0.88,0.97,1.03,0.767,1.07,1.04,1.04,1.02,0.702,–,–,–,–,–
NCI-H1395,0.718,0.782,0.652,0.688,0.674,1.11,0.97,0.908,1,0.821,–,–,–,–,–,0.384,0.457,0.391,0.419,0.383
NCI-H1563,–,–,–,–,–,0.91,0.845,1,1.01,0.857,0.928,0.957,0.852,0.827,0.722,–,–,–,–,–
NCI-H1648,0.528,0.587,0.513,0.456,0.453,–,–,–,–,–,–,–,–,–,–,0.722,0.628,0.727,0.667,0.443
NCI-H1650,0.372,0.485,0.505,0.435,0.329,0.685,0.891,0.709,0.925,0.579,0.216,0.193,0.21,0.234,0.227,–,–,–,–,–
NCI-H2009,0.396,0.393,0.396,0.396,0.369,1.01,0.903,0.785,0.946,0.786,1.25,1.11,0.986,1.03,0.88,–,–,–,–,–
NCI-H2023,0.257,0.248,0.217,0.24,0.156,0.876,0.796,0.783,0.966,0.9,1.2,0.905,0.917,1.08,0.736,–,–,–,–,–
NCI-H2228,–,–,–,–,–,1.04,0.974,1.14,0.99,0.635,0.939,0.928,1.25,1.17,0.64,–,–,–,–,–
NCI-H2342,0.547,0.809,0.697,0.834,0.645,–,–,–,–,–,–,–,–,–,–,0.382,0.516,0.436,0.566,0.433
SK-LU-1,0.593,0.555,0.709,0.615,0.535,0.675,0.918,1.05,1.07,0.62,1.08,0.965,1.05,1.19,1.01,–,–,–,–,–
SK-MES-1,0.572,0.391,0.375,0.461,0.353,0.453,0.537,0.478,0.437,0.481,–,–,–,–,–,–,–,–,–,–
SW 1573,0.453,0.524,0.505,0.633,0.447,1.26,1.2,1.05,1.27,1.06,1.26,1.16,1.05,1.06,0.649,–,–,–,–,–
UMC-11,0.591,0.714,0.58,0.633,0.53,0.999,0.745,0.86,1.21,0.821,0.793,0.609,0.731,0.861,0.595,–,–,–,–,–
